Six molecules from ChEMBL document CHEMBL5154877, “Novel Sphingosine Kinase 1 Inhibitor Suppresses Growth of Solid Tumor and Inhibits the Lung Metastasis of Triple-Negative Breast Cancer” (J Med Chem, 2022) can be followed below.

Molecules are shown by their SMILES.

What is called IC50 is the midpoint of a concentration-inhibition curve. High values mean weaker potency in that assay, low ones greater potency in that assay. A word on the Cmax: it is the highest concentration seen after dosing. For orientation: AUC(0-t) means exposure summed from dosing to a finite time, without extrapolation to infinity. A lower AUC(0-t) goes with less exposure. As usually defined, the Tmax is the time at which the peak concentration occurs. One may read the clearance as a measure of how efficiently the substance is removed, as volume per time. A higher clearance goes with a high capacity for elimination. The half-life is the time needed for the level to fall by half in the phase considered. The low end stands for fast loss, the high end for slow loss. The term bioavailability denotes dose-corrected exposure relative to a reference, in per cent.

For data set [1], the target named is T1, Sphingosine kinase 2 (Homo sapiens, UniProt Q9NRA0).
T1 sequence (Q9NRA0 whole entry): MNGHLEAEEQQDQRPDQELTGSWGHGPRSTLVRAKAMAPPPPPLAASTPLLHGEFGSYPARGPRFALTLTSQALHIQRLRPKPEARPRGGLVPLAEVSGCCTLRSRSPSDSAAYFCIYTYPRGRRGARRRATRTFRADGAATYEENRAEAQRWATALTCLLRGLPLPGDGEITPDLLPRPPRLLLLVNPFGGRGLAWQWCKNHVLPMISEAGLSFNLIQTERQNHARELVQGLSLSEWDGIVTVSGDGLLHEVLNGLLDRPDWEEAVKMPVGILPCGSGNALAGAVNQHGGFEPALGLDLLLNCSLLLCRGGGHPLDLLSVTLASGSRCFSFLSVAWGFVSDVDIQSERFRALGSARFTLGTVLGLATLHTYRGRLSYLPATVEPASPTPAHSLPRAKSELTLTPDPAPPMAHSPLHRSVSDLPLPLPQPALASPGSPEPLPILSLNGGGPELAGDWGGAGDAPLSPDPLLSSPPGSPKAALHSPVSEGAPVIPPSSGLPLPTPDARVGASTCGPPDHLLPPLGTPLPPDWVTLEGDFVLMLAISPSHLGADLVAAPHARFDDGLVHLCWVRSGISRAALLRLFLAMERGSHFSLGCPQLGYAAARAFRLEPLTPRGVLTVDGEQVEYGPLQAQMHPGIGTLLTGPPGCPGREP

A short description of data set [2]: Cmax in mouse at 20 mg/kg, po. The class given is ADME, organism-based. On the set-up: dose 20 mg/kg, route po. To be noted: in vivo.
A short description of data set [3]: AUClast in mouse at 20 mg/kg, po. The class given is ADME, organism-based. On the set-up: time 0 - last, dose 20 mg/kg, route po. To be noted: in vivo.
Data set [4] in a line: AUClast in mouse at 2 mg/kg, iv. The class given is ADME, organism-based. On the set-up: time 0 - last, dose 2 mg/kg, route iv. Conditions: in vivo.
Data set [5] can be described thus: Tmax in mouse at 20 mg/kg, po. The format is ADME, organism-based. To be noted: in vivo.
Data set [6] in a line: Clearance in mouse at 2 mg/kg, iv. The format is ADME, organism-based. Conditions: in vivo.
A short description of data set [7]: Half life in mouse at 20 mg/kg, po. The class given is ADME, organism-based. Conditions: in vivo.
The nature of data set [8]: Half life in mouse at 2 mg/kg, iv. The format is ADME, organism-based. Conditions: in vivo.
Data set [9] can be described thus: Oral bioavailability in mouse at 20 mg/kg. The format is ADME, organism-based. To be noted: in vivo.

For the molecule `Cc1cc(CS(=O)(=O)c2ccc([N+](=O)[O-])cc2)cc(OCc2ccc(CN3CCC[C@@H]3CO)cc2)c1`, the IC50 in [1] is over 10 µM.
The molecule `Cc1cc(CS(=O)(=O)c2ccccc2)cc(OCc2ccc(CN3CCCCC3CO)cc2)c1` (centres undefined) came in with an IC50 in data set [1] of over 10 µM.
On the same count and under the same terms, the result for `O=S(=O)(Cc1cc(OCc2ccc(CN3CCC[C@@H]3CO)cc2)cc(C(F)(F)F)c1)c1ccccc1` reads over 10 µM; that for `Cc1cc(CS(=O)(=O)c2ccccc2)cc(OCCCCCCCN2CCC[C@@H]2CO)c1`, over 10 µM.
Same read-out and setting: the result for `Cc1cc(CS(=O)(=O)c2ccccc2)cc(OCc2ccc(CN(C)CCO)cc2)c1` reads over 10 µM.
For the molecule `Cc1cc(CS(=O)(=O)C2CC2)cc(OCc2ccc(CN3CCC[C@@H]3CO)cc2)c1`, the concentration in data set [2] peaked (Cmax) at 83.6 ng/mL. The AUC(0-t) in [3] was determined as 100 ng·h/mL; in data set [4], 201 ng·h/mL. Further, in [1], the concentration for half-maximal inhibition (IC50) is over 10 µM. The Tmax in [5] was determined as 0.25 h. The clearance in data set [6] came to 164 mL/min/kg. The half-life in data set [7] and in [8] was 1.79 h throughout. This molecule also displayed a bioavailability in data set [9] of 4.95%.
